Experimental data from patent US7807368B2, “Cyclin-dependent kinase inhibitors as targets for opiod growth factor treatment” (priority 2006, dated 2010).
Entries after “also recorded” stand apart in the source; their conditions may differ.

Key:
[1] = tested on: human umbilical vein endothelial cells (HUVEC); test: Growth of HUVEC; format: cell-based
Text: Another normal cell line, human umbilical vein endothelial cells (HUVEC) has been subjected to OGF exposure. […] At 96 hr, OGF-treated cultures had 45.9% fewer cells than normal cultures.

p21 = test: Western blot of p21 in PANC-1 cells; format: cell-based, human; details: synchronized PANC-1 cells, 6 hours
Method: Human pancreatic cancer cell lines BxPC-3, PANC-1, and Capan-2 were obtained from the American Type Culture Collection (Manassas, Va.), and cultured in RPMI, Dulbecco's Modified Medium, or McCoy's 5A medium, respectively. All media were supplemented with 10% fetal bovine serum, 1.2% sodium bicarbonate, and 0.25% antibiotics (5000 units/ml penicillin, 5 μg/ml streptomycin and 10 μg/ml neomycin). OGF was purchased from Sigma-Aldrich (St. Louis, Mo.), dissolved in sterile water, and used at a final concentration of 10^−6 M.
Synchronized cells (2×10^6) from each treatment were solubilized in 200 μl RIPA buffer (1×PBS, 10 μM IGEPAL, 1 mg/ml SDS, 5 mg/ml deoxycholic acid), containing protease and phosphatase inhibitors (2 μg/ml aprotinin, 3 mg/ml phenylmethyl sulfonyl fluoride, 1 mM sodium orthovanidate, 1 μM okadaic acid). Total protein concentrations were measured using the DC protein assay kit (Bio-Rad Laboratories, Hercules, Calif.). Equal amounts of protein (40 μg) were subjected to 10% SDS-PAGE followed by transfer of proteins onto polyvinylidene difluoride (Millipore, Billerica, Mass.) using standard protocols.
The p21-targeted siRNAs were obtained from Santa Cruz Biotechnology, and negative control siRNAs were purchased from Ambion (Ambion, Inc., Austin, Tex.). For transfection, 2×10^5 cells per well were seeded in 6-well plates containing 1 ml of media without antibiotics. […]

p21/Cdk2 complex = test: Cdk2 immunoprecipitation, p21/Cdk2 and cyclin E/Cdk2 complexes in BxPC-3 cells; format: cell-based, human
Text: Cell extracts were subjected to immunoprecipitation using antibodies against Cdk2 and protein A beads. Immunoprecipitates were separated on a 15% SDSPAGE gel, and membrane blots probed with p21 antibodies (1:100), and developed using a chemiluminescence Western blotting detection system. Blots were reprobed with Cdk2 antibody (1:200).

BxPC-3 cells = test: Growth of BxPC-3 cells transfected with p21 siRNA or negative control siRNA; format: cell-based, human; details: for reduction in growth: negative control siRNA-transfected BxPC-3 cells
Method: The p21-targeted siRNAs were obtained from Santa Cruz Biotechnology, and negative control siRNAs were purchased from Ambion (Ambion, Inc., Austin, Tex.). For transfection, 2×10^5 cells per well were seeded in 6-well plates containing 1 ml of media without antibiotics. For each well, 1 μl of siRNA stock (20 μM) was mixed with 175 μl of serum-free media. Two μl of Oligofectamine reagent (Invitrogen, Carlsbad, Calif.) was added to prewashed cells in each well, making the final concentration for siRNA approximately 20 nM. Cells were incubated for 4 hours at 37° C. prior to the addition of OGF. Eighteen hours later, 1 ml fresh complete media with or without OGF was added to the cultures; media and OGF were replaced daily. At the indicated time points, cells were collected for growth curves or Western blotting.

Cdk4 kinase activity = test: Immunoprecipitation and Rb kinase assay (Cdk4 kinase activity) in SCC-1 cells; format: cell-based, human
Method: To quantify expression levels or kinase activity, the optical density of each band was determined by densitometry and analyzed by QuickOne (Bio-Rad Laboratories). Each value was normalized to β-actin from the same blot. To report the changes due to OGF treatment, the fold increase was calculated by dividing the normalized value from the OGF treated samples by the normalized value of control samples at each time point; thus, increases due to OGF have values greater than one, and decreases due to OGF have values less than one.
Immunoprecipitation and Rb kinase assay. For immunoprecipitating protein complexes, cell extracts were prepared as follows: 2×10^6 cells per sample were rinsed in cold PBS followed by lysis in 100 μl NP40 immunoprecipitation buffer (1% NP-40, 50 mM Tris-HCI (pH7.4), 150 mM NaCl, 1 mM EDTA, 10 mM NaF, 2 μg/ml antipain, 1 mM sodium orthovanidate, 2 μg/ml aprotinin, 2 μg/ml leupeptin, 1 μg/ml pepstatin A, 1 μM okadaic acid, 1 mM PMSF, 1 mM dithiothreitol (DTT). For each immunoprecipitation reaction mixture, a total of 500 μg of protein extract was used. The lysates were then subjected to immunoprecipitation using 10 μl polyclonal antibody against Cdk4 prebound with agarose conjugate (sc-601 AC, Santa Cruz) for 60 min at 4° C. Then immunoprecipitates were mixed with kinase buffer (25 mM HEPES, pH7.4, 10 mM MgCl2), 5 μCi γ^32P-ATP, and Rb(769-921) (sc-4112, Santa Cruz) as the substrate for Cdk4. After incubation for 30 min at 30° C., with occasional mixing, the reaction was stopped by the addition of 2× sample loading buffer (0.5 M Tris-HCl, pH 6.8, 4.4% (w/v) SDS, 20% (v/v) glycerol, 2% (v/v) 2-mercaptoethanol, and bromophenol blue in distilled/deionized water). Proteins in the reaction mixture were separated by a 10% SDS-PAGE gel. The Cdk4 kinase activity pattern was visualized by autoradiography of phosphorylated Rb.

[2] = tested on: Rabbit Tenon's Fibroblast cells (RTCFs); test: Cell counts of Rabbit Tenon's Fibroblast cells; format: cell-based; details: 72 hours
Method: OGF in dosages ranging from 10−4 to 10^−7 M were added to 24-well cultures for 72 hours; sterile water served as control. Drug or vehicle, and media were changed daily. Cell counts of Rabbit Tenon's Fibroblast cells (RTCFs) treated with OGF (10^−7 to 10^−5 M) were 28%, 33%, and 37% smaller than controls (p<0.001).

Substance: [Met^5]-enkephalin [OGF]
- cell number relative to control cultures ([1]; 10^-6 M OGF, 48, 72, and 96 hr): significant (p<0.01) reductions
- fewer cells than normal cultures ([1]; 10^-6 M OGF, 96 hr): 45.9%
- p21 expression relative to control cells (p21): increased p21 expression
- levels of the p21/Cdk2 complex (p21/Cdk2 complex; 3, 6, 9, 12, 15, 18, and 21 hours, significant (p<0.05) at 15 hours): elevated at all time points; also recorded: increase at 9, 12, 15, 18, and 21 hours
- level of the cyclin E/Cdk2 complex (p21/Cdk2 complex; after treatment with OGF): no change
- effect on cell growth of cells transfected with p21 siRNA (BxPC-3 cells; BxPC-3 cells, 10^-6 M OGF): no effect
- Cell numbers vs transfected cells receiving sterile water (BxPC-3 cells; BxPC-3 cultures transfected with negative control siRNA, 10^-6 M OGF (FIG. 8)): significantly reduced
- reduction in growth (BxPC-3 cells; 10^-6 M OGF, 48 hours): 17.8%
- reduction in growth (BxPC-3 cells; 10^-6 M OGF, 72 hours): 28.6%
- reduction in growth (BxPC-3 cells; 10^-6 M OGF, 96 hours): 35.8%
- reduction in growth (BxPC-3 cells; 10^-6 M OGF, 120 hours): 33.0%
- Cdk4 kinase activity vs control cells at each respective time (Cdk4 kinase activity; OGF for 3, 6, 9, or 12 h (FIG. 1)): differed significantly
- Cdk4 kinase activity relative to controls (Cdk4 kinase activity; OGF for 6, 9, and 12 h): marked decrease
- Cdk4 kinase activity relative to controls (Cdk4 kinase activity; OGF for 3 h): transient increase
- decrease in cell proliferation compared to RTCFs treated with 10^-6 M OGF ([2]; 10^-4 M OGF): 22%
- decrease in cell proliferation compared to RTCFs treated with 10^-7 M OGF ([2]; 10^-4 M OGF): 26%
- decrease in proliferation compared to controls ([2]; 10^-4 M OGF): 47%
- Cell counts smaller than controls ([2]; 10^-5 M OGF): 37%
- Cell counts smaller than controls ([2]; 10^-6 M OGF): 33%
- Cell counts smaller than controls ([2]; 10^-7 M OGF): 28%
